Active and inactive are the calls of the source. The calls are words filed in the database; no cut-off is given here.
Columns and labels:
[1] = target: Transmembrane protease serine 2 (Homo sapiens, UniProt O15393); assay: Inhibition of TMPRSS2 (106 to 492 residues) (unknown origin) using Boc-QAR-AMC as substrate measured for 20 mins by spectrophotometer analysis
Calu-3 [2] = assay: Cytotoxicity against human Calu-3 cells assessed as reduction in cell viability; format: functional
SARS-CoV-2 [3] = assay: Antiviral activity against SARS-CoV-2 B.1.1.7 infected in human Caco-2 cells assessed as inhibition of viral infection preincubated for 1 hr followed by viral infection measured after 48 hrs by Hoechst 33342 staining based analysis; format: functional, organism-based; details: Severe acute respiratory syndrome coronavirus 2, time 49.0 hrs
SARS-CoV-2 [4] = assay: Antiviral activity against SARS-CoV-2 B.1.1.7 infected in human Calu-3 cells assessed as inhibition of viral infection preincubated for 1 hr followed by viral infection measured after 48 hrs by Hoechst 33342 staining based analysis; format: functional, organism-based; details: Severe acute respiratory syndrome coronavirus 2, B.1.1.7, Calu-3
Calu-3 [5] = assay: Cytotoxicity against human Calu-3 cells assessed as reduction in cell viability upto 500 uM measured after 48 hrs by Hoechst 33342 staining based analysis; format: toxicity; details: calu-3, 48 h

Chain of Transmembrane protease serine 2 (O15393 1-255 limits assumed): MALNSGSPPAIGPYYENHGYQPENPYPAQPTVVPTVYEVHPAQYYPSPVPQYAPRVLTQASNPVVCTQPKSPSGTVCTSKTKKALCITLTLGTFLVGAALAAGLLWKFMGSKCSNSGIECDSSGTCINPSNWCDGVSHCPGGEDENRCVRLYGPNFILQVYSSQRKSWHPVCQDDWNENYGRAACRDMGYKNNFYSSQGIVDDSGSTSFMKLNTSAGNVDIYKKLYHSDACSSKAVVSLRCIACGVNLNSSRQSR
Chain of Transmembrane protease serine 2 (O15393 256-492 limits assumed): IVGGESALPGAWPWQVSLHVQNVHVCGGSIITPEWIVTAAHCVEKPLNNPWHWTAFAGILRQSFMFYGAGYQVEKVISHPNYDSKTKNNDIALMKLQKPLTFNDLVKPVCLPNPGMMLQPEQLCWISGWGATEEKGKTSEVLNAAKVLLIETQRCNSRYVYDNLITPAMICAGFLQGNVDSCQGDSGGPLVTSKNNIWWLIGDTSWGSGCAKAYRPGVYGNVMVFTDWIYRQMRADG

Row | SMILES | IC50 [1] [µM] | CC50 (Calu-3 [2]) [µM] | Activity (SARS-CoV-2 [3]) | IC50 (SARS-CoV-2 [4]) [µM] | Activity (Calu-3 [5])
1 | Cc1ccc(C(=O)Nc2ccc3c(c2)CCN(C(=N)N)C3)cc1 | 4 |  |  |  | 
2 | N=C(N)N1CCc2cc(NC(=O)c3ccc4ccccc4c3)ccc2C1 | 4 |  |  |  | 
3 | N=C(N)N1CCc2cc(NC(=O)c3cccc4ccccc34)ccc2C1 | 3.4 |  |  |  | 
4 | N=C(N)N1CCc2ccccc2C1 [DEBRISOQUIN] | 23 | > 500 | inactive | 22 | Non-Toxic
5 | N=C(N)c1ccc(OCCCOc2ccc(C(=N)N)cc2)cc1 [PROPAMIDINE] |  | > 500 |  |  | 

From ChEMBL document CHEMBL5247670, “TMPRSS2 Inhibitor Discovery Facilitated through an In Silico and Biochemical Screening Platform” (ACS Med Chem Lett, 2023)
